Measurements: the C3SDB collision cross section collection
Several values for one entry are separate records, joined by “and”; a condition that tells them apart may be missing. Equal entries are not always repeated.

Experiments:
[1] = instrument: DT, single field, calibrated with Agilent tune mix (Agilent)
[2] = instrument: DT, stepped-field

Row | SMILES | collision cross section (N2) ([2]; [M+Na]+) | collision cross section (N2) ([2]; [M+H]+) | also measured
1 | OC[C@H]1O[C@@H]2O[C@H]3[C@H](O)[C@@H](O)[C@@H](O[C@H]4[C@H](O)[C@@H](O)[C@@H](O[C@H]5[C@H](O)[C@@H](O)[C@@H](O[C@H]6[C@H](O)[C@@H](O)[C@@H](O[C@H]7[C@H](O)[C@@H](O)[C@@H](O[C@H]8[C@H](O)[C@@H](O)[C@@H](O[C@H]1[C@H](O)[C@H]2O)O[C@@H]8CO)O[C@@H]7CO)O[C@@H]6CO)O[C@@H]5CO)O[C@@H]4CO)O[C@@H]3CO [Beta-Cyclodextrin] | 319.7 Å² | 301.3 Å² and 319.6 Å² | collision cross section (N2) ([2]; [M+K]+): 320.3 Å²
2 | CCCCCCCCCCCCC=CC[C@@H](O)[C@H](COP(=O)([O-])OCC[N+](C)(C)C)NC(=O)CC=CCCCCCCCCCCCCCCCCCCCCC [SM(43:2)] | 311.5 Å² |  | 
3 | CCCC[N+](CCCC)(CCCC)CCCC [TAA4] |  |  | collision cross section (N2) ([2]; [M]+): 166.6 Å²
4 | OC[C@@H](O)[C@@H](O)[C@H](O)[C@@H](O)CO [Sorbitol] | 139.4 Å² |  | 
5 | CCCCCCCCCCCCCCCCCCCCCC(=O)N[C@@H](COP(=O)([O-])OCC[N+](C)(C)C)[C@H](O)CCCCCCCCCCCCCCC [SM(40:0)] | 305.7 Å² |  | 
6 | OCC1OC(OC2C(CO)OC(OC3C(CO)OC(OC4C(CO)OC(OC5C(CO)OC(OC6C(CO)OC(OC7C(CO)OC(OC8C(CO)OC(O)C(O)C8O)C(O)C7O)C(O)C6O)C(O)C5O)C(O)C4O)C(O)C3O)C(O)C2O)C(O)C(O)C1O (stereo unspecified) [(Hex)8] | 320.9 Å² and 338.8 Å² |  | collision cross section (N2) ([2]; [M+H-H2O]+): 333.8 Å²
7 | OCC1OC(OC2C(CO)OC(OC3C(CO)OC(OC4C(CO)OC(OC5C(CO)OC(OC6C(CO)OC(OC7C(CO)OC(OC8C(CO)OC(OC9C(CO)OC(OC%10C(CO)OC(OC%11C(CO)OC(OC%12C(CO)OC(O)C(O)C%12O)C(O)C%11O)C(O)C%10O)C(O)C9O)C(O)C8O)C(O)C7O)C(O)C6O)C(O)C5O)C(O)C4O)C(O)C3O)C(O)C2O)C(O)C(O)C1O (stereo unspecified) [(Hex)12] |  |  | collision cross section (N2) ([2]; [M+H-H2O]+): 400.3 Å² and 422.9 Å²; collision cross section (N2) ([2]; [M+Na-H2O]+): 390.6 Å² and 410 Å²
8 | CCCCCCCCCCCCC=CC[C@@H](O)[C@H](CO[C@@H]1O[C@H](CO)[C@@H](O)C(O)C1O)NC(=O)CC=CCCCCCCCCCCCCCCCCCCC (stereo partly specified) [GlcCer(41:2)] | 299.6 Å² |  | 
9 | CC(=O)NC1C(OC2C(O)C(CO)OC(OC(C(O)CO)C(O)C(O)C=O)C2O)OC(CO)C(O)C1O (stereo unspecified) [HexNAc-(Hex)2] | 220 Å² |  | collision cross section (N2) ([2]; [M+Na-H2O]+): 216.3 Å²
10 | CCCCC[N+](CCCCC)(CCCCC)CCCCC [TAA5] |  |  | collision cross section (N2) ([2]; [M]+): 190.1 Å²
11 | CCCCCCCCCCCCC=CC[C@@H](O)[C@H](COP(=O)([O-])OCC[N+](C)(C)C)NC(=O)CC=CCC=CCCCCCCCCCCCCCCCCCC [SM(43:3)] | 309.6 Å² |  | 
12 | OCC1OC(OC2C(CO)OC(OC3C(CO)OC(OC4C(CO)OC(O)C(O)C4O)C(O)C3O)C(O)C2O)C(O)C(O)C1O (stereo unspecified) [(Hex)4] |  |  | collision cross section (N2) ([2]; [M+H-H2O]+): 234.7 Å²; collision cross section (N2) ([2]; [M+K]+): 236.6 Å²; collision cross section (N2) ([2]; [M+Na-H2O]+): 234.8 Å²
13 | CCCCCCCCCCCC[N+](CCCCCCCCCCCC)(CCCCCCCCCCCC)CCCCCCCCCCCC [TAA12] |  |  | collision cross section (N2) ([2]; [M]+): 319 Å²
14 | CCCCC/C=C\C/C=C\C/C=C\CCCCC(=O)OC[C@H](COP(=O)(O)OCCN)OC(=O)CCCCCCC/C=C\CCCCCCCCC [PE(37:4)] |  |  | collision cross section (N2) ([2]; [M+K]+): 284.7 Å²
15 | CC=CCC=CCC=CCC=CCC=CCC=CCC=CCC=CCC(=O)OC[C@H](COP(=O)(O)OC[C@H](N)C(=O)O)OC(=O)CC=CCC=CCC=CCC=CCC=CCC=CCC=CCC=CC [PS(52:16)] | 322.2 Å² |  | 
16 | CCCCC/C=C\C/C=C\CCCCCCCC(=O)O[C@H](COCCCCCCCCCCCCCCCCCC)COP(=O)(O)OCCN [PE(o36:2)] | 287.3 Å² |  | 
17 | OC[C@H]1O[C@H](O[C@H]2[C@H](O)[C@@H](O)[C@@H](O[C@H]3[C@H](O)[C@@H](O)[C@@H](O)O[C@@H]3CO)O[C@@H]2CO)[C@H](O)[C@@H](O)[C@@H]1O [Maltotriose] | 212.8 Å² | 216.3 Å² | collision cross section (N2) ([2]; [M+K]+): 216.8 Å²
18 | OC[C@H]1O[C@H](O[C@H]2[C@H](O)[C@@H](O)[C@@H](O[C@H]3[C@H](O)[C@@H](O)[C@@H](O[C@H]4[C@H](O)[C@@H](O)[C@@H](O[C@H]5[C@H](O)[C@@H](O)[C@@H](O[C@H]6[C@H](O)[C@@H](O)[C@@H](O[C@H]7[C@H](O)[C@@H](O)[C@@H](O)O[C@@H]7CO)O[C@@H]6CO)O[C@@H]5CO)O[C@@H]4CO)O[C@@H]3CO)O[C@@H]2CO)[C@H](O)[C@@H](O)[C@@H]1O [Maltoheptaose] | 303.1 Å² | 303.3 Å² | collision cross section (N2) ([2]; [M+K]+): 303.4 Å²
19 | CC(=O)NC1C(O)OC(CO)C(O)C1OC1OC(CO)C(O)C(O)C1O (stereo unspecified) [HexNAc-Hex] | 190.2 Å² |  | collision cross section (N2) ([2]; [M+K]+): 191.1 Å²; collision cross section (N2) ([2]; [M+Na-H2O]+): 184.3 Å²
20 | OC[C@H]1O[C@H](O[C@H]2[C@H](O)[C@@H](O)[C@@H](O[C@H]3[C@H](O)[C@@H](O)[C@@H](O[C@H]4[C@H](O)[C@@H](O)C(O)O[C@@H]4CO)O[C@@H]3CO)O[C@@H]2CO)[C@H](O)[C@@H](O)[C@@H]1O (stereo partly specified) [Maltotetraose] | 235.3 Å² | 238.3 Å² | 
21 | CC(C)[C@H](NC(=O)[C@@H](N)Cc1ccc(O)cc1)C(=O)N[C@@H](CCCNC(=N)N)C(=O)O [YVR] |  | 207 Å² | 
22 | CCCCC=CCC=CCC=CCC(=O)OC[C@H](COP(=O)(O)OCCN)OC(=O)CC=CCC=CCC=CCCCC [PE(28:6)] |  |  | collision cross section (N2) ([2]; [M+K]+): 248.7 Å²

Second part, led by results:

Row | collision cross section (N2) ([2]; [M+Na]+) | collision cross section (N2) ([2]; [M+H]+) | SMILES | also measured
23 | 274.1 Å² |  | CCCCCCCCC/C=C\CCCCCCCC(=O)O[C@H](COC(=O)CCCCCCCCCCCC)COP(=O)(O)OCCN [PE(32:1)] | collision cross section (N2) ([1]; [M+H]+): 267.2 Å²; collision cross section (N2) ([1]; [M+Na]+): 272 Å²; collision cross section (N2) ([1]; [M-H]-): 256.6 Å²
24 |  | 238.3 Å² | C[C@H](N)C(=O)N[C@@H](Cc1ccccc1)C(=O)N[C@@H](CC(=O)O)C(=O)N[C@@H](CCC(=O)O)C(=O)N[C@@H](CCCCN)C(=O)O [AFDEK] | 
25 |  | 291.2 Å² | CCC(C)[C@H](NC(=O)CNC(=O)[C@H](CC(C)C)NC(=O)[C@@H](N)C(C)C)C(=O)N[C@@H](CC(=O)O)C(=O)NCC(=O)NCC(=O)N[C@@H](CCC(=O)O)C(=O)NCC(=O)N[C@@H](CCCCN)C(=O)O (stereo partly specified) [VLGIDGGEGK] | 
26 |  | 245.5 Å² | CCC(C)[C@H](NC(=O)[C@H](CCC(N)=O)NC(=O)CN)C(=O)N[C@H](C(=O)NCC(=O)N[C@@H](CCCNC(=N)N)C(=O)O)C(C)C (stereo partly specified) [GQIVGR] | 
27 | 273.6 Å² |  | CCCC/C=C\CCCCCCCC(=O)OC[C@H](COP(=O)(O)OCCN)OC(=O)CCCCCC/C=C\C/C=C\C/C=C\CCCCC [PE(34:4)] | 
28 |  | 217.1 Å² | N=C(N)NCCC[C@H](NC(=O)[C@H](CCC(=O)O)NC(=O)CNC(=O)[C@@H](N)Cc1ccccc1)C(=O)O [FGER] | 
29 |  | 220.1 Å² | CSCC[C@H](NC(=O)[C@@H](N)Cc1c[nH]c2ccccc12)C(=O)NCC(=O)N[C@@H](CCCCN)C(=O)O [WMGK] | 
30 | 297.8 Å² |  | CC/C=C\C/C=C\C/C=C\C/C=C\C/C=C\CCCC(=O)O[C@H](COC(=O)CCCC/C=C\C/C=C\C/C=C\C/C=C\CC)COP(=O)([O-])OCC[N+](C)(C)C [PC(38:9)] | 
31 |  | 269.9 Å² | CC(C)C[C@H](NC(=O)[C@@H](NC(=O)CN)C(C)C)C(=O)N[C@@H](Cc1c[nH]cn1)C(=O)N[C@@H](C)C(=O)N[C@H](C(=O)N[C@@H](CCCCN)C(=O)O)C(C)C [GVLHAVK] | 
32 | 283.7 Å² |  | CCCCC/C=C\C/C=C\C/C=C\C/C=C\CCCC(=O)O[C@H](COC(=O)CCCC/C=C\C/C=C\C/C=C\CCCCC)COP(=O)(O)OCCN [PE(38:7)] | collision cross section (N2) ([2]; [M+K]+): 287 Å²
33 |  | 249.4 Å² | CC(C)C[C@H](NC(=O)[C@H](Cc1c[nH]cn1)NC(=O)[C@@H](N)CC(=O)O)C(=O)N[C@H](C(=O)NCC(=O)N[C@@H](CCCNC(=N)N)C(=O)O)C(C)C [DHLVGR] | 
34 | 203.5 Å² | 204.6 Å² | N=C(N)NCCC[C@H](NC(=O)CNC(=O)[C@H](CC(=O)O)NC(=O)[C@@H](N)CO)C(=O)NCC(=O)O [SDGRG] | collision cross section (N2) ([2]; [M+K]+): 205.4 Å²
35 | 293.6 Å² |  | CC/C=C\C/C=C\C/C=C\C/C=C\CCCCC(=O)OC[C@H](COP(=O)(O)OC[C@H](N)C(=O)O)OC(=O)CCCCC/C=C\C/C=C\C/C=C\C/C=C\CCCCC [PS(40:8)] | 
36 | 302.3 Å² |  | CCCCCCCCCCCCCCCCCCCCCC(=O)N[C@@H](CO[C@@H]1O[C@H](CO)[C@@H](O)C(O)C1O)[C@H](O)CCCCCCCCCCCCCCC (stereo partly specified) [GlcCer(40:0)] | 
37 |  | 256.6 Å² | CC(C)[C@H](N)C(=O)N[C@@H](CCC(=O)O)C(=O)N[C@@H](CC(=O)O)C(=O)N[C@H](C(=O)N[C@@H](CC(=O)O)C(=O)N[C@@H](CCCNC(=N)N)C(=O)O)C(C)C [VEDVDR] | 
38 | 297.1 Å² |  | CC/C=C\C/C=C\C/C=C\C/C=C\C/C=C\C/C=C\CCC(=O)O[C@H](COC(=O)CCC/C=C\C/C=C\C/C=C\C/C=C\CCCCC)COP(=O)(O)OC[C@H](N)C(=O)O [PS(42:10)] | 
39 | 277.3 Å² |  | CCCCCCCCCCCCC=CC[C@@H](O)[C@H](CO[C@@H]1O[C@H](CO)[C@@H](O)C(O)C1O)NC(=O)CCCCCCCCCCCCCCC (stereo partly specified) [GlcCer(34:1)] | 
40 |  | 219 Å² | NCCCC[C@H](NC(=O)[C@H](CC(N)=O)NC(=O)[C@H](CCC(=O)O)NC(=O)[C@@H](N)CCC(N)=O)C(=O)O [QENK] | 
41 |  | 332.9 Å² | CCC(C)[C@H](NC(=O)[C@@H](NC(=O)CN)C(C)C)C(=O)N[C@@H](Cc1ccccc1)C(=O)N[C@@H](Cc1ccc(O)cc1)C(=O)N[C@@H](CCC(=O)O)C(=O)N[C@@H](CO)C(=O)N[C@@H](Cc1c[nH]cn1)C(=O)NCC(=O)N[C@@H](CCCCN)C(=O)O (stereo partly specified) [GVIFYESHGK] | 
